Measurements published in patent publication US9765052B2, “Anthranilamide compounds, their mixtures and the use thereof as pesticides” (BASF SE, priority 2013, dated 2017).

Columns and labels:
[1] = system: green peach aphid (Myzus persicae); test: Test 1: control of green peach aphid through systemic means (artificial diet, 96-well microtiter plates); type: in vivo; details: 3 days
From the text: If present, synergism can be described as an interaction where the combined effect of two or more compounds is greater than the sum of the individual effects of each of the compounds. The presence of a synergistic effect in terms of percent control, between two mixing partners (X and Y) can be calculated using the Colby equation (Colby, S. R., 1967, Calculating Synergistic and Antagonistic Responses in Herbicide Combinations, Weeds, 15, 20-22):
When the observed combined control effect is greater than the expected combined control effect (E), then the combined effect is synergistic.
For evaluating control of green peach aphid (Myzus persicae) through systemic means the test unit consisted of 96-well-microtiter plates containing liquid artificial diet under an artificial membrane.
The compounds or mixtures were formulated using a solution containing 75% water and 25% DMSO. Different concentrations of formulated compounds or mixtures were pipetted into the aphid diet, using a custom built pipetter, at two replications.
For experimental mixtures in these tests identical volumes of both mixing partners at the desired concentrations respectively, were mixed together.
After application, 5-8 adult aphids were placed on the artificial membrane inside the microtiter plate wells. The aphids were then allowed to suck on the treated aphid diet and incubated at […], 50±5% RH for 3 days. Aphid mortality and fecundity was then visually assessed. For the mixture tested the results are listed in the tables for Example E2-1 and E2-2.

Degradation in soil = type: physicochemical; details: neutral sandy loam soil LUFA 5M; incubated at 27° C. and 40% of max. water-holding capacity over 90 days; DT50 referring to 20° C.; SFO or DFOP kinetics
Protocol: Degradation of the compound (I-B-131) and compound (I-B-33) in soil was compared. The two compounds were incubated in neutral sandy loam soil (LUFA 5M) at 27° C. and 40% of the max. water-holding capacity over a period of 90 days. Soil extraction was carried out with acetonitrile followed by acetonitrile/water (1/1) and the extracted test compounds were quantified by HPLC-MS. The following DT50 values (referring to 20° C.) were obtained assuming single first order (SFO) or double first order in parallel (DFOP) kinetics: […]

[2] = system: Diamide-resistant diamond back moth (Plutella xylostella), Cebu strain; details: third instar larvae, mortality 3 days after inoculation; comparing LC50s and LC90s
[3] = system: Neonicotinoid resistant strain of the brown planthopper (Nilaparvata lugens); test: B2 b) Nilaparvata lugens larvicide, feeding/contact activity, preventive on rice seedlings; Resistance Factor RF80; type: in vivo; details: IND3 strain (neonicotinoid resistant) vs standard screening strain of Nilaparvata lugens; lowest concentration giving greater than 80% mortality
From the text: (§1) The level of resistance and therefore the impact on the performance of the insecticide can be measured by the use of a ‘Resistance Factor’. The resistance factor can be calculated by dividing the concentration of an insecticide that provides a set level of mortality (i.e. 80 percent) for the ‘resistant’ strain with the concentration of the same insecticide that provides the same level of mortality for the ‘susceptible’ insect of the same species and life-stage. Although there are no set rules, a low value (1-10) indicates no cross-resistance and only natural levels of variation and a high value (50+) provides strong evidence of cross-resistance.
b) Neonicotinoid Resistant Strain of the Brown Planthopper (Nilaparvata lugens)
Nilaparvata lugens strains utilised: • Standard screening strain of Nilaparvata lugens (Neonicotinoid susceptible) • IND3 strain of Nilaparvata lugens (Neonicotinoid resistant) Bioassay Method: Nilaparvata lugens: Larvicide, Feeding/Contact Activity, Preventive
Rice seedlings are treated with the diluted test solutions in a turn table spray chamber. After drying, they are infested with 20 N3 nymphs. 6 and 12 days after the treatment samples are checked for mortality, growth regulation, and effects on the Fi generation.
The Resistance Factor (RF80) of different compounds is tested. […]

[4] = system: Neonicotinoid and pyrethroid resistant strain of the green peach aphid (Myzus persicae); test: B2 a) Myzus persicae mixed population, contact activity, curative on pea seedlings; Resistance Factor RF80; type: in vivo; details: FRC-P strain (neonicotinoid resistant) vs standard screening strain of Myzus persicae; lowest concentration giving greater than 80% mortality, 6 days after treatment
From the text: B2: Determination of the cross-resistance status of compounds I when applied against agronomically important pest species resistant to one or more commercially available class of insecticide.
as §1
a) Neonicotinoid and Pyrethroid Resistant Strain of the Green Peach Aphid (Myzus persicae)
Myzus persicae strains utilised: • Standard screening strain of Myzus persicae (Neonicotinoid susceptible) • FRC-P strain of Myzus persicae (Neonicotinoid resistant) Bioassay Method
Myzus persicae: mixed population, contact activity, curative on pea seedlings
Pea seedlings, infested with an aphid population of mixed ages, are treated with the test solutions in a spray chamber. 6 days after treatment, samples are checked for mortality. […]

[5] = system: ALM07 strain (neonicotinoid and pyrethroid resistant), adult whitefly
From the text: Bioassay Method Bemisia tabaci Residual Activity, Preventive Egg Lay

With `CC(NC(=O)c1cc(Cl)cc(Br)c1NC(=O)c1cc(Br)nn1-c1ncccc1Cl)C1CC1` (stereo not shown) [I-A-1] as the molecule, how does the “Average Control %” value ([1]; Example E2-1, 0.4 ppm) read?
Its value is 0%.

And the “Average Control %” value ([1]; Example E2-2, 0.8 ppm)?
Its value is 0%.

Which DT50 (Degradation in soil) does the source give for `CNC(=O)c1cc(Cl)cc(C)c1NC(=O)c1cc(Br)nn1-c1ncccc1Cl` [I-B-33, chlorantraniliprole] here?
The DT50 was 89 days.

And the “Average Control %” value ([1]; Example E2-2, 0.4 ppm)?
Its value is 0%.

For `Cc1cc(Cl)cc(C(N)=O)c1NC(=O)c1cc(C(F)(F)F)nn1-c1ncccc1Cl` [I-B-131, N-(2-carbamoyl-4-chloro-6-methyl-phenyl)-2-(3-chloro-2-pyridyl)-5-(trifluoromethyl)pyrazole-3-carboxamide], which DT50 (Degradation in soil) is on record?
The DT50 was 41 days.

With `CC1=NNC(=O)N(/N=C/c2cccnc2)C1` [Pymetrozine, pymetrozine] as the molecule, how does the “Average Control %” value ([1]; Example E2-1, 80 ppm) read?
The value was 0%.

For `Cc1cc(C(F)(C(F)(F)F)C(F)(F)F)ccc1NC(=O)c1cccc(I)c1C(=O)NC(C)(C)CS(C)(=O)=O` [flubendiamide], which “Efficacy against field collected Cebu strain of Plutella xylostella” value [2] is on record?
The value was “only weak efficacies”.

Which “Resistance Factor (RF80)” value [3] does the source give for `CN1COCN(Cc2cnc(Cl)s2)/C1=N\[N+](=O)[O-]` [thiamethoxam] here?
Its value is greater than 64.

What about the “Resistance Factor (RF80)” value [4] of the same molecule?
Its value is greater than 250.

What about the “RF in residual mortality bioassay of adult whitefly” value [5] of the same molecule?
The value was greater than 250.
